Data published in PMC8411975, “Frag4Lead: growing crystallographic fragment hits by catalog using fragment-guided template docking” (Acta Crystallographica. Section D, Structural Biology, 2021).
Read-outs that look alike come from different tables or passages of the source.

How the values were obtained:
endothiapepsin (EP) [1] = target: T1, endothiapepsin (EP) (Cryphonectria parasitica, UniProt P11838); set-up: method as in Schiebel, Radeva et al. (2016); conditions: starting fragments, ref Schiebel, Radeva et al. (2016), cited from earlier work; for Kd: read-out: Kd (dissociation constant of the compound from EP)
T1 sequence (P11838 90-419): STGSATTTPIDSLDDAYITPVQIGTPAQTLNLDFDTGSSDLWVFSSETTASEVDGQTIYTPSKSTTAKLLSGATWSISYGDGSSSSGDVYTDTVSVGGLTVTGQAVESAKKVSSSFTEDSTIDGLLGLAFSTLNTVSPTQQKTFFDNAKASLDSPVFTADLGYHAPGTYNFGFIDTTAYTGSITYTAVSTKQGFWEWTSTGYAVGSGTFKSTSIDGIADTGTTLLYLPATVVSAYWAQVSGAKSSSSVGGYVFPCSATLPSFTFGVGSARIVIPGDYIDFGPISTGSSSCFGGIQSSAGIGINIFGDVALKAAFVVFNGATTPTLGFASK

[2] = Solubility noted during ITC sample preparation; format: physicochemical; conditions: ITC buffer, 0.1 M sodium acetate pH 4.6, 3%(v/v) DMSO
Method: (§1) ITC experiments were conducted similarly to the procedure desribed by Schiebel, Radeva et al. (2016[▸]) on a MicroCal ITC200 (Malvern) instrument. All buffer solutions for ITC were prepared with the same batch of buffer as used to isolate the batch of EP. Details of the ITC experiments, including the protein and ligand concentrations for each experiment, are listed in Supplementary Table S2. […] All displacement titrations were conducted as single measurements, except for that of FU5-2 (n = 3). The affinities of the stronger binding follow-up ligands were determined by direct ITC titrations. For this, 1 mM compound in a buffer solution consisting of 0.1 M sodium acetate pH 4.6, 3%(v/v) DMSO was titrated into the same buffer additionally containing 50 µM EP to a final stoichiometry of N = 4.

[3] = Stability of synthesized compound on exposure to air; format: physicochemical; conditions: exposed to air at room temperature over a longer period of time
endothiapepsin (EP) [4] = target: T1, endothiapepsin (EP); assay: Compound soaking into EP crystals and X-ray crystal structure determination; format: binding; conditions: soaking at 100 mM or supernatant, 16–22 h
Method: The follow-up compounds (a full list, including providers and purities, if known, is given in Supplementary Table S1) were directly dissolved in a soaking solution consisting of 68.2 mM sodium acetate pH 4.6, 68.2 mM ammonium acetate pH 7.0, 16.9%(w/v) PEG 4000, 19.3%(v/v) glycerol, 9.09%(v/v) DMSO to a concentration of 100 mM. For poorly soluble follow-up compounds, crystals were soaked in the supernatant of the solution. After incubation for 16–22 h the crystals were flash-cooled in liquid nitrogen and stored for diffraction data collection.
All data collections were carried out on beamlines BL14.1 and BL14.2 of the BESSY II electron-storage ring operated by the Helmholtz-Zentrum Berlin (HZB; Mueller et al., 2015[▸]). Typically, 360° of data were collected in 0.1° increments using an exposure time of 0.1 s. Data were automatically processed using XDSAPP (Sparta et al., 2016[▸]).
All structures were refined using the automated script fspipeline, which is based on Schiebel, Krimmer et al. (2016[▸]). The starting model was based on PDB entry 4y5l (Schiebel, Krimmer et al., 2016[▸]), from which all ligands and water molecules were removed. Electron-density maps and coordinate files obtained from the automated refinement were inspected manually for each experiment to judge the presence or absence of the expected ligand in the difference electron density. Subsequently, the identified hits were subjected to several rounds of alternating model building in Coot (Emsley et al., 2010[▸]) and refinement in Phenix (Liebschner et al., 2019[▸]) before and after ligand placement. For all follow-up ligands, occupancy refinement was carried out. Refined models and the corresponding electron-density maps were submitted to the PDB under group deposition ID G_1002201.

endothiapepsin (EP) [5] = target: T1, endothiapepsin (EP); assay: Isothermal titration calorimetry (direct or SAP114-displacement titration) against EP; format: binding; conditions: for LE (ligand efficiency): from ITC Kd; for Kd: read-out: Kd determined by ITC; for fold affinity increase compared with the starting fragment: ITC Kd of follow-up versus Kd of its starting fragment
Method: as §1
The obtained thermogram peaks of all titrations (Supplementary Fig. S4) were integrated with Nitpic 1.1.8 (Keller et al., 2012[▸]). Subsequently, fitting of a single-site binding-model isotherm was performed using SEDPHAT 10.58d (Houtman et al., 2007[▸]). For the errors of the fit, see Supplementary Table S3. […] During the fit, ΔH was corrected for the heat of dilution, which was individually fitted for each experiment. The stoichiometry was arbitrarily fixed at the anticipated stoichiometry of N = 1 as appropriate for the present low c-value titrations (Rühmann et al., 2015[▸]).
Table S2. Details of ITC measurements.
Follow-Up Titration Concentration Ligand Concentration Final Stoichiometry
Compound Type in Cell Concentration in Syringe (Ligand:Protein)
[a] 0.1% (v/v) Tween 20 in s yringe and cell.
Table S3. Fitting statistics for ITC titration curves
Compound Global reduced chi-square[a] local rmsd[a] (B:A) n[c] Kd [µM] (SD)[d]
Isotherm fitting statistics of ITC data, anal yzed vi a SEDPHAT 10.58d (Houtman et al., 2007).
[a] Goodness of fit p arameters (glob al reduced chi-squ are and wei ghted local rmsd)
[b] Stochiometry o f the ligand protein A and t he ligand B at the infl ection point of the
[c] Number of used data points corresponding to injections of the ITC ex periment

Compound | LE (ligand efficiency, binding energy per non-H atom) (endothiapepsin (EP) [1]) | Kd (endothiapepsin (EP) [1]) | binding observed in crystal structure after soaking (endothiapepsin (EP) [4]) | LE (ligand efficiency) (endothiapepsin (EP) [5]) | Kd (endothiapepsin (EP) [5]) | further results
NC1=NCc2ccccc21 [F005] | 0.38 kcal mol^−1 per atom | 1700 µM | – | – | – | –
O=C(CN1CCCCC1)Nc1ccc2c(c1)OCO2 [F041] | 0.22 kcal mol^−1 per atom | 900 µM | – | – | – | –
Cc1cc(CN)n(C)n1 [F058] | 0.31 kcal mol^−1 per atom | 8800 µM | – | – | – | –
NCc1ccc(-c2ccco2)nc1 [F066] | 0.35 kcal mol^−1 per atom | 400 µM | – | – | – | –
N=C(N)SCc1ccc(Cl)cc1 [F290] | 0.45 kcal mol^−1 per atom | 100 µM | – | – | – | –
NC1=N/C(=N\Nc2ccccc2)c2ccccc21 [FU5-1] | – | – | – | – | – | solubility [2]: poor solubility; stability of the compound [3]: decomposition
N=C1N=C(N)c2ccccc21 [FU5-2] | – | – | retained the binding pose of F005 | 0.37 kcal mol^−1 per atom | 970 µM | –
NC1=NC(=O)c2ccccc21 [FU5-3] | – | – | retained the binding pose of F005 | 0.39 kcal mol^−1 per atom | 740 µM | –
N=C(N)N/N=C1\N=C(N)c2ccccc21 [FU5-4] | – | – | – | 0.31 kcal mol^−1 per atom | 400 µM | –
Cc1noc(C)c1CN(C)Cc1cc2n(n1)CCN(c1cc(N)ncn1)C2 [FU58-1] | – | – | observed in crystal structures | 0.17 kcal mol^−1 per atom | 450 µM | fold affinity increase compared with the starting fragment (endothiapepsin (EP) [5]): about 20 fold
CN(C)CCNC(=O)c1cc2n(n1)CCN(c1ccnc(N)n1)C2 [FU58-2] | – | – | observed in crystal structures | – | – | –
CSc1ccc(CN(CCO)Cc2cc(C)nn2C)cc1 [FU58-3] | – | – | observed in crystal structures | 0.19 kcal mol^−1 per atom | 1040 µM | –
CSc1ccc(CNCCO)cc1 [FU58-3b, 2-{[4-(methylthio)benzyl]amino}ethan-1-ol] | – | – | identified in the electron density | – | – | –
Oc1nc(-c2ccco2)ccc1CN(Cc1ccccn1)C1CC1 [FU66-1] | – | – | observed in the crystal structure | 0.21 kcal mol^−1 per atom | 160 µM | –
N=C(N)SCc1ccc(CSC(=N)N)cc1 [FU290-1] | – | – | – | 0.44 kcal mol^−1 per atom | 7.2 µM | fold affinity increase compared with the starting fragment (endothiapepsin (EP) [5]): 14 fold
CC(SC(=N)N)c1ccc(Cl)cc1 (stereo not shown) [FU290-2] | – | – | – | 0.40 kcal mol^−1 per atom | 160 µM | –
